# Data published in patent publication US11753446B2, “Beta-hairpin peptidomimetics” (POLYPHOR AG, priority 2014, dated 2023).
# Where a SMILES comes first, the peptide text is derived from it. Bridges are numbered along the chain shown (N, C = ends). [ ]: non-standard residue; d: D form. Ala(cPent) = N[C@@H](CC1CCCC1)C(=O)O; dDab = NCC[C@@H](N)C(=O)O; Orn = NCCC[C@H](N)C(=O)O; Dab = NCC[C@H](N)C(=O)O
# Experiments:
# [1] = tested on: Acinetobacter baumannii DSM 30008; type: cell-based; settings: DSM 30008
# Summary of the method: (§1)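 Peptide activity was tested by NCCLS broth microdilution with slight modifications. Bacteria were diluted in cation-adjusted Mueller-Hinton II broth to approximately 10^6 CFU/mL against a 0.5 McFarland standard. They were then exposed to two-fold serial peptide dilutions in broth containing 0.002% final polysorbate 80.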
# [2] = tested on: Escherichia coli ATCC 25922; type: cell-based; settings: ATCC 25922
# Summary of the method: as §1
# [3] = tested on: Klebsiella pneumoniae ATCC 13883; type: cell-based; settings: ATCC 13883
# Summary of the method: as §1
# [4] = tested on: human red blood cells (hRBC); assay: Hemolysis: hemolytic activity at 100 μg/mL, 1 h at 37° C.; settings: red cells of human, 1 h, 100
# Summary of the method: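 Peptides at 100 μg/mL incubated with washed 20% (v/v) human erythrocytes (~0.9×10^9 cells/mL) for 1 h at 37 °C with shaking. Released hemoglobin read at OD 540 nm in supernatant; 0% and 100% lysis from PBS/0.001% acetic acid and 2.5% Triton X-100.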
SMILES,Acinetobacter baumannii DSM 30008 MIC [1],Escherichia coli ATCC 25922 MIC [2],Klebsiella pneumoniae ATCC 13883 MIC [3],Hemolysis at 100 μg/mL [4]
"CC[C@H](C)[C@@H]1NC(=O)[C@H](CCCNC(=N)N)NC(=O)[C@@H](CCN)NC(=O)[C@H](C(C)C)NC(=O)[C@@H]2CSSC[C@H](NC1=O)C(=O)N[C@@H](Cc1ccc(O)cc1)C(=O)N[C@@H](CC(N)=O)C(=O)N[C@@H](CCCN)C(=O)N[C@H](CCN)C(=O)N[C@@H](CCN)C(=O)N[C@@H](Cc1c[nH]c3ccccc13)C(=O)N[C@@H](CO)C(=O)N[C@@H](Cc1ccc(O)cc1)C(=O)N2 [Example 70, cyclo(-Ile-Cys-Tyr-Asn-Orn-^DDab-Dab-Trp-Ser-Tyr-Cys-Val-^DDab-Arg-)] (HELM PEPTIDE1{C.V.[NCC[C@@H](N[*:1])C(=O)[*:2]].R.I.C.Y.N.[Orn].[NCC[C@@H](N[*:1])C(=O)[*:2]].[Dab].W.S.Y}$PEPTIDE1,PEPTIDE1,1:R3-6:R3|PEPTIDE1,PEPTIDE1,1:R1-14:R2$$$V2.0)",2.25 µg/mL,1 µg/mL,1 µg/mL,1%
"CC(C)C[C@@H]1NC(=O)[C@H](CCCNC(=N)N)NC(=O)[C@@H](CCN)NC(=O)[C@H](C(C)C)NC(=O)[C@H](C)NC(=O)[C@H](C(C)C)NC(=O)[C@@H]2CSSC[C@H](NC(=O)[C@H](Cc3ccc(O)cc3)NC(=O)[C@H](CO)NC1=O)C(=O)N[C@@H](CCCN)C(=O)NCC(=O)N[C@@H](CCN)C(=O)N[C@@H](Cc1c[nH]c3ccccc13)C(=O)N2 [Example 40, cyclo(-Leu-Ser-Tyr-Cys-Orn-Gly-Dab-Trp-Cys-Val-Ala-Val-^DDab-Arg-)] (HELM PEPTIDE1{A.V.[NCC[C@@H](N[*:1])C(=O)[*:2]].R.L.S.Y.C.[Orn].G.[Dab].W.C.V}$PEPTIDE1,PEPTIDE1,8:R3-13:R3|PEPTIDE1,PEPTIDE1,1:R1-14:R2$$$V2.0)",4 µg/mL,4 µg/mL,2 µg/mL,4%
"CC(C)[C@@H]1NC(=O)[C@@H]2CSSC[C@H](NC(=O)[C@H](CC3CCCC3)NC(=O)[C@H](CCCNC(=N)N)NC(=O)[C@@H](CCN)NC1=O)C(=O)N[C@@H](Cc1ccc(O)cc1)C(=O)N[C@@H](CC(N)=O)C(=O)N[C@@H](CCCN)C(=O)N[C@H](CCN)C(=O)N[C@@H](CCN)C(=O)N[C@@H](Cc1c[nH]c3ccccc13)C(=O)N[C@@H](CO)C(=O)N[C@@H](Cc1ccc(O)cc1)C(=O)N2 [Example 58, cyclo(-Cpa-Cys-Tyr-Asn-Orn-^DDab-Dab-Trp-Ser-Tyr-Cys-Val-^DDab-Arg-)] (cyclo([Ala(cPent)]CYN[Orn][dDab][Dab]WSYCV[dDab]R); disulfide 2-11)",0.625 µg/mL,0.5 µg/mL,0.75 µg/mL,3%
"CC(C)C[C@@H]1NC(=O)[C@H](CCCNC(=N)N)NC(=O)[C@@H](CCN)NC(=O)[C@H](C(C)C)NC(=O)[C@@H]2CSSC[C@H](NC1=O)C(=O)N[C@@H](Cc1ccc(O)cc1)C(=O)N[C@@H](CO)C(=O)N[C@@H](CCCN)C(=O)N[C@H](CCN)C(=O)N[C@@H](CCN)C(=O)N[C@@H](Cc1c[nH]c3ccccc13)C(=O)N[C@@H](CC(N)=O)C(=O)N[C@@H](Cc1ccc(O)cc1)C(=O)N2 [Example 52, cyclo(-Leu-Cys-Tyr-Ser-Orn-^DDab-Dab-Trp-Asn-Tyr-Cys-Val-^DDab-Arg-)] (HELM PEPTIDE1{C.V.[NCC[C@@H](N[*:1])C(=O)[*:2]].R.L.C.Y.S.[Orn].[NCC[C@@H](N[*:1])C(=O)[*:2]].[Dab].W.N.Y}$PEPTIDE1,PEPTIDE1,1:R3-6:R3|PEPTIDE1,PEPTIDE1,1:R1-14:R2$$$V2.0)",1.25 µg/mL,0.75 µg/mL,1.5 µg/mL,1%
